Assay [1] has as its target T1, MAT2A homodimer (Homo sapiens, UniProt P31153).
T1 construct: inferred from Ni sepharose purification and imidazole elution; made in house; host or cells: Sf9 insect cells, recombinant baculovirus (Bac to Bac, pFASTBAC1)
The assay is described as follows: Biochemical assay: inhibition of MAT2A (phosphate release, PiColorLock Gold). Particulars: MAT2A IC50 score; read-out: Enzyme Inhibition (Example 275). Put shortly:
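Baculovirus/Sf9-expressed, Ni-purified MAT2A at 4 µg/mL was preincubated with compound for 60 min at 25 °C in 50 mM Tris pH 8.0, 50 mM KCl, 15 mM MgCl2, 0.3 mM EDTA, 0.005% BSA. Substrate mix (500 μM ATP, 400 μM L-methionine) was added and the reaction ran 60 min at 25 °C. Phosphate released stoichiometrically with SAM was measured colorimetrically against a phosphate standard curve.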

Assay [2] deals with SAM in HCT116 human colon carcinoma cell line engineered to delete the MTAP gene (MTAP −/−). The assay is described as follows: Cellular assay of target engagement (SAM) by LC-MS/MS. Particulars: Homo sapiens, HCT-116, 72 h, IC50 score, read-out: Cell 72 h SAM Inhibition (MTAP −/−; Example 276). Format: cell-based. The method in brief: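 MTAP-deleted HCT116 cells were dosed 24 h after plating with a 10-point 3-fold compound series in DMSO, then incubated 72 h at 37 °C/5% CO2. Cells were extracted in cold 80% methanol with acetic acid and d3-SAM internal standard. SAM was quantified by LC-MS/MS MRM (m/z 399.2→250.1).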

The subject of assay [3] is HCT116 MTAP−/−. The assay is described as follows: Inhibition of cellular proliferation (Cell Titer Glo), HCT116 MTAP−/−. Particulars: Homo sapiens, HCT-116, 96 h, 4 days, IC50 score, read-out: 4 Day Relative Growth Inhibition (MTAP −/−; Example 277). Format: cell-based, human. The method in brief: (§1)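 Isogenic HCT116 lines, MTAP+/+ and MTAP−/−, treated 24 h after plating with 10-point 3-fold compound dilutions including DMSO only, then grown 4 days at 37 °C/5% CO2. Cell Titer Glo ATP luminescence, blank-subtracted and normalised to 0.2% DMSO control, gave percent change in proliferation versus log concentration.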
(In ATP-based viability assays light output follows the ATP content of the culture.)

The subject of assay [4] is HCT116 MTAP+/+. Description: Inhibition of cellular proliferation (Cell Titer Glo), HCT116 MTAP+/+. The assay is classed as cell-based, human. Particulars: Homo sapiens, HCT-116, 96 h, 4 days, IC50 score, read-out: 4 Day Relative Growth Inhibition (MTAP +/+; Example 277). The method in brief:
as §1

pIC50: −log10 of the molar value.

T1 sequence (P31153 whole entry): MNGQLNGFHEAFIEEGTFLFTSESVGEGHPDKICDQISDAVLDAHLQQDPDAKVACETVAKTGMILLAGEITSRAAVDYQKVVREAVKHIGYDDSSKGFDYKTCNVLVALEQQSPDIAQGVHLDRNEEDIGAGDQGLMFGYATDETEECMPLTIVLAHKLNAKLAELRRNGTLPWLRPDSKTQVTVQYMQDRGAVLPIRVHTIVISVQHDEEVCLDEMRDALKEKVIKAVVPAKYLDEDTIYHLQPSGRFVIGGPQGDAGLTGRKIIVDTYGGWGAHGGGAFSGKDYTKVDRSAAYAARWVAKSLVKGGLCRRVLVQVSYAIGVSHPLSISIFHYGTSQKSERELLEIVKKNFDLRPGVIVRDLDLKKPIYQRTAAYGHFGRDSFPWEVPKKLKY

Consider `CCOc1ccc2cn(-c3ccc4nn(C)cc4c3)c(=O)c(-c3ccc(-c4cc[nH]n4)cc3)c2n1` [Example 223, 8-(4-(1H-pyrazol-3-yl)phenyl)-2-ethoxy-6-(2-methyl-2H-indazol-5-yl)-1,6-naphthyridin-7(6H)-one], for which the pIC50 in assay [1] is more than 7.00; in assay [2], 6.00 to 7.00; in assay [3], 5.00 to 7.00; in assay [4] it was less than 5.00.
In the case of `CCOc1ccc2cn(-c3ccc(OC)cc3)c(=O)c(-c3ccc(OC(F)(F)F)nc3)c2n1` [Example 121-A], the pIC50 is more than 7.00 in assay [1], more than 7.00 in assay [2], 5.00 to 7.00 in assay [3] and 5.00 to 7.00 in assay [4].
`CCOc1ccc2cn(-c3ccc4ncn(C)c4c3)c(=O)c(-c3ccc(OC(F)F)cc3)c2n1` [Example 253, 8-(4-(difluoromethoxy)phenyl)-2-ethoxy-6-(1-methyl-1H-benzo[d]imidazol-6-yl)-1,6-naphthyridin-7(6H)-one]: the pIC50 in assay [1] is more than 7.00; in assay [2], more than 7.00; in assay [3] it was more than 7.00; in assay [4] it was 5.00 to 7.00.
Regarding `Cn1cc2cc(-n3cc4ccc(NCC(F)(F)F)nc4c(-c4ccc(OC(F)(F)F)cc4)c3=O)ccc2n1` [Example 211, 6-(2-methyl-2H-indazol-5-yl)-2-((2,2,2-trifluoroethyl)amino)-8-(4-(trifluoromethoxy)phenyl)-1,6-naphthyridin-7(6H)-one], the pIC50 in assay [1] was more than 7.00; in assay [2], more than 7.00; in assay [3], more than 7.00; in assay [4], less than 5.00.
In the case of `O=c1c(-c2ccc(-c3nc[nH]n3)cc2)c2nc(OCC(F)(F)F)ncc2cn1-c1ccc2ncccc2c1` [Example 268, 8-(4-(H-1,2,4-triazol-3-yl)phenyl)-6-(quinolin-6-yl)-2-(2,2,2-trifluoroethoxy)pyrido[4,3-d]pyrimidin-7(6H)-one], the pIC50 in assay [1] is more than 7.00; in assay [2], 6.00 to 7.00; in assay [3], 5.00 to 7.00; in assay [4], less than 5.00.
For the molecule `CCOc1ccc2cn(-c3ccc4nn(C)cc4c3)c(=O)c(-c3ccc(C(F)(F)F)cc3)c2n1` [Example 215, 2-ethoxy-6-(2-methyl-2H-indazol-5-yl)-8-(4-(trifluoromethyl)phenyl)-1,6-naphthyridin-7(6H)-one], the pIC50 in assay [1] is more than 7.00; in assay [2], more than 7.00; in assay [3], more than 7.00; in assay [4], 5.00 to 7.00.
In the case of `CCOc1ccc2cn(-c3ccc4nnn(C)c4c3)c(=O)c(-c3ccc(OC(F)F)cc3)c2n1` [Example 252, 8-(4-(difluoromethoxy)phenyl)-2-ethoxy-6-(1-methyl-1H-benzo[d][1,2,3]triazol-6-yl)-1,6-naphthyridin-7(6H)-one], the pIC50 is more than 7.00 in assay [1], more than 7.00 in assay [2], 5.00 to 7.00 in assay [3] and 5.00 to 7.00 in assay [4].
On to `CCCc1ccc2cn(-c3ccc4ncn(C)c4c3)c(=O)c(-c3ccc(OC(F)F)cc3)c2n1` [Example 260, 8-(4-(difluoromethoxy)phenyl)-6-(1-methyl-1H-benzo[d]imidazol-6-yl)-2-propyl-1,6-naphthyridin-7(6H)-one], for which the pIC50 is more than 7.00 in assay [1], more than 7.00 in assay [2], more than 7.00 in assay [3] and less than 5.00 in assay [4].
With `O=c1c(-c2ccc(Cl)cc2)c2nc(NCC(F)(F)F)ncc2cn1-c1ccc2c(c1)CCO2` [Example 133, 8-(4-chlorophenyl)-6-(2,3-dihydrobenzofuran-5-yl)-2-(2,2,2-trifluoroethylamino)pyrido[4,3-d]pyrimidin-7(6H)-one], the pIC50 was more than 7.00 in assay [1], more than 7.00 in assay [2], more than 7.00 in assay [3] and less than 5.00 in assay [4].
Regarding `Cn1cc2cc(-n3cc4cnc(NCC(F)(F)F)nc4c(-c4ccc(Br)cc4)c3=O)ccc2n1` [Example 103-A], the pIC50 was more than 7.00 in assay [1], more than 7.00 in assay [2], more than 7.00 in assay [3] and less than 5.00 in assay [4].
For `Cc1c2cc(-n3cc4cnc(NCC(F)(F)F)nc4c(-c4ccc(OC(F)F)cc4)c3=O)ccc2nn1C` [Example 158, 8-(4-(difluoromethoxy)phenyl)-6-(2,3-dimethyl-2H-indazol-5-yl)-2-((2,2,2-trifluoroethyl)amino)pyrido[4,3-d]pyrimidin-7(6H)-one], the pIC50 in assay [1] is more than 7.00; in assay [2], more than 7.00; in assay [3] it was more than 7.00; in assay [4], less than 5.00.
On to `Cn1cc2cc(-n3cc4ncc(OCC(F)F)nc4c(-c4ccc(OC(F)F)nc4)c3=O)ccc2n1` [Example 144-A], for which the pIC50 was more than 7.00 in assay [1], more than 7.00 in assay [2], 5.00 to 7.00 in assay [3] and 5.00 to 7.00 in assay [4].
For the molecule `COc1ccc(-n2cc3cnc(NCC(F)(F)F)nc3c(-c3ccc(C4CC4)cc3)c2=O)cc1` [Example 167, 8-(4-cyclopropylphenyl)-6-(4-methoxyphenyl)-2-((2,2,2-trifluoroethyl)amino)pyrido[4,3-d]pyrimidin-7(6)-one], the pIC50 was more than 7.00 in assay [1], 6.00 to 7.00 in assay [2], 5.00 to 7.00 in assay [3] and less than 5.00 in assay [4].
